Assay results published in patent US11000033B2, “Ketone or oxime compound, and herbicide” (NISSAN CHEMICAL CORPORATION, priority 2014, dated 2021).

Experiments:
Format in all cases: in vivo
[1] = tested on: rice; assay: Test Example 4: effect on crop by soil treatment (symbol b); details: application herbicide amount 320 g/ha
Summary of the method: (§1)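 Plants grew in a 25° C. to 30° C. greenhouse after spot-sowing of seeds, including beet, rapeseed, wheat and rice, into sterilized diluvial soil under roughly 1.5 cm of cover soil.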

[2] = tested on: Alopecurus myosuroides; assay: Test Example 4: herbicidal effect by soil treatment (symbol J); details: application herbicide amount 320 g/ha
Summary of the method: (§2)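 Seeds were sown in sterilized diluvial soil, covered with about 1.5 cm of soil, and the soil surface was sprayed with a water-diluted emulsion of the compound at a predetermined rate. Plants grew in a greenhouse at 25° C. to 30° C.; effects were scored visually 3 weeks after application.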

[3] = tested on: Scirpus juncoides; assay: Test Example 1: herbicidal activity, application before weed generation in submerged conditions (symbol B); details: application herbicide amount 320 g/ha
Summary of the method: (§3)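 Weed control was rated three weeks after treatment on a 0–5 scale, from 5% or lower up to 90% or more. Pre-emergence water-surface application of diluted emulsion at a predetermined rate was made on the day of sowing, in flooded (4 cm water) pots containing rice seedlings, kept at 25–30 °C under glass.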

[4] = tested on: wheat; assay: Test Example 4: effect on crop by soil treatment (symbol e); details: application herbicide amount 320 g/ha
Summary of the method: as §1

[5] = tested on: soybean; assay: Test Example 4: effect on crop by soil treatment (symbol d); details: application herbicide amount 320 g/ha
Summary of the method: as §1

[6] = tested on: Stellaria media; assay: Test Example 4: herbicidal effect by soil treatment (symbol P); details: application herbicide amount 320 g/ha
Summary of the method: as §2

[7] = tested on: Setaria viridis; assay: Test Example 5: herbicidal effect by foliage application, plastic box (symbol G); details: 320 g/ha, 3 weeks after application
Summary of the method: (§4)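 Emulsion formulation, diluted with water to the intended rate, was applied uniformly to leaves by small sprayer. Recipients were 14-day greenhouse-grown seedlings (25° C. to 30° C.). Assessment followed at 3 weeks.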

[8] = tested on: Echinochloa oryzacola Vasing.; assay: Test Example 1: herbicidal activity, application before weed generation in submerged conditions (symbol A); details: application herbicide amount 320 g/ha
Summary of the method: as §3

[9] = tested on: Galium spurium; assay: Test Example 5: herbicidal effect by foliage application, plastic box (symbol Q); details: 320 g/ha, 3 weeks after application
Summary of the method: as §4

[10] = tested on: corn; assay: Test Example 4: effect on crop by soil treatment (symbol c); details: application herbicide amount 320 g/ha
Summary of the method: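 Crop seed is sown in spots together with several weed species in a box of sterilized diluvial soil. It is covered by about 1.5 cm of soil and kept in a greenhouse held between 25° C. and 30° C.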

[11] = tested on: transplanted rice plant; assay: Test Example 1: effect on crop, application before weed generation in submerged conditions (symbol a); details: application herbicide amount 320 g/ha
Summary of the method: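 Rice at 2.5 leaf stage transplanted into submerged soil (4 cm depth) sown with three weed species; herbicide applied before weed emergence.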

[12] = tested on: Alopecurus myosuroides; assay: Test Example 5: herbicidal effect by foliage application, plastic box (symbol J); details: 320 g/ha, 3 weeks after application
Summary of the method: as §4

[13] = tested on: Cyperus difformis; assay: Test Example 3: herbicidal effect by foliage application, Wagner pot (symbol E); details: application herbicide amount 320 g/ha
Summary of the method: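 In a shallow-flooded alluvial soil system held at 25–30 °C, plants including rice grew for 14 days and were then sprayed over the foliage with emulsion diluted to a fixed herbicide amount. Visual rating followed at 3 weeks.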

[14] = tested on: Galium spurium; assay: Test Example 4: herbicidal effect by soil treatment (symbol Q); details: application herbicide amount 320 g/ha
Summary of the method: as §2

[15] = tested on: Lolium multiflorum Lam.; assay: Test Example 5: herbicidal effect by foliage application, plastic box (symbol K); details: 320 g/ha, 3 weeks after application
Summary of the method: as §4

| SMILES | b: directly sowed rice plant, effect on crop grade [1] | J: Alopecurus myosuroides, herbicidal effect grade [2] | Herbicidal effect grade, B: Scirpus juncoides [3] | e: wheat, effect on crop grade [4] | d: soybean, effect on crop grade [5] | P: Stellaria media, herbicidal effect grade [6] | G: Setaria viridis, herbicidal effect grade [7] | Herbicidal effect grade, A: Echinochloa oryzacola Vasing. [8] | Q: Galium spurium, herbicidal effect grade [9] | c: corn, effect on crop grade [10] | Effect grade on crop, a: transplanted rice plant [11] | J: Alopecurus myosuroides, herbicidal effect grade [12] | herbicidal effect on E, grade 0-5 [13] | Q: Galium spurium, herbicidal effect grade [14] | K: Lolium multiflorum Lam., herbicidal effect grade [15] |
| --- | --- | --- | --- | --- | --- | --- | --- | --- | --- | --- | --- | --- | --- | --- | --- |
| CON=C(C)CC1CC(O)=C(c2c(C)cc(C(C)=O)cc2C)C1=O (stereo not drawn) [6-026] | 5 (Herbicidal ratio of 90% or more (almost completely withered)) | 1 (Herbicidal ratio of 5% or higher and lower than 20%) | 0 (Herbicidal ratio of 5% or lower (almost no effect)) | 0 (Herbicidal ratio of 5% or lower (almost no effect)) | 0 (Herbicidal ratio of 5% or lower (almost no effect)) | 0 (Herbicidal ratio of 5% or lower (almost no effect)) | 5 (Herbicidal ratio of 90% or more (almost completely withered)) | 1 (Herbicidal ratio of 5% or higher and lower than 20%) | 0 (Herbicidal ratio of 5% or lower (almost no effect)) | 0 (Herbicidal ratio of 5% or lower (almost no effect)) | 3 (Herbicidal ratio of 40% or higher and lower than 70%) | 5 (Herbicidal ratio of 90% or more (almost completely withered)) | 5 (Herbicidal ratio of 90% or more (almost completely withered)) | 0 (Herbicidal ratio of 5% or lower (almost no effect)) | 5 (Herbicidal ratio of 90% or more (almost completely withered)) |
| CON=C(C)CC1CC(O)=C(c2c(C)cc(OCC(F)(F)F)cc2C)C1=O (stereo not drawn) [6-049] | 5 (Herbicidal ratio of 90% or more (almost completely withered)) | 5 (Herbicidal ratio of 90% or more (almost completely withered)) | 5 (Herbicidal ratio of 90% or more (almost completely withered)) | 5 (Herbicidal ratio of 90% or more (almost completely withered)) | 0 (Herbicidal ratio of 5% or lower (almost no effect)) | 4 (Herbicidal ratio of 70% or higher and lower than 90%) | 5 (Herbicidal ratio of 90% or more (almost completely withered)) | 5 (Herbicidal ratio of 90% or more (almost completely withered)) | 5 (Herbicidal ratio of 90% or more (almost completely withered)) | 5 (Herbicidal ratio of 90% or more (almost completely withered)) | 5 (Herbicidal ratio of 90% or more (almost completely withered)) | 5 (Herbicidal ratio of 90% or more (almost completely withered)) | 5 (Herbicidal ratio of 90% or more (almost completely withered)) | 3 (Herbicidal ratio of 40% or higher and lower than 70%) | 5 (Herbicidal ratio of 90% or more (almost completely withered)) |
